These results are taken from ChEMBL document CHEMBL1144654, “Discovery of 1-(4-phenoxypiperidin-1-yl)-2-arylaminoethanone stearoyl-CoA desaturase 1 inhibitors” (Bioorg Med Chem Lett, 2007).

This test deals with T1, Stearoyl-CoA desaturase (Homo sapiens, UniProt O00767).
T1 sequence (O00767 whole entry): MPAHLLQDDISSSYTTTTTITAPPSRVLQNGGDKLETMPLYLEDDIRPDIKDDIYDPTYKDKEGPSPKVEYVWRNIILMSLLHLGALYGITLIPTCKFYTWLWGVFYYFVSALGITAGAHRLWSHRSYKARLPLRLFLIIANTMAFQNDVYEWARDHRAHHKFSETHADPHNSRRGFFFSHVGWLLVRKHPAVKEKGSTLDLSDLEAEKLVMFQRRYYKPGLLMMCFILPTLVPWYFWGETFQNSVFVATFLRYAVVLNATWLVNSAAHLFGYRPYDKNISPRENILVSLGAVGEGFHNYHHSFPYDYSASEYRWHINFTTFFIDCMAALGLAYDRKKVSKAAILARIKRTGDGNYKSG
Kind of test: Inhibition of human SCD1.

Molecules are shown by their SMILES. Where only a bound is given, the exact number is not on record here.

In turn, `CC(C)CNC(=O)c1nccnc1NCC(=O)N1CCC(Oc2ccccc2Cl)CC1` returned an IC50 of 260 nM.

Compound `O=C(NCc1ccccn1)c1nccnc1NCC(=O)N1CCC(Oc2ccccc2Cl)CC1` returned an IC50 of 110 nM.

In turn, `O=C(NCc1ccncc1)c1nccnc1NCC(=O)N1CCC(Oc2ccccc2Cl)CC1` yielded an IC50 of 110 nM.

With `O=C(Nc1ccccc1)c1nccnc1NCC(=O)N1CCC(Oc2ccccc2Cl)CC1`, the midpoint of inhibition, the IC50, lay at 550 nM.

The compound `COC(=O)c1nccnc1NCC(=O)N1CCC(Oc2ccccc2Cl)CC1` came in with an IC50 of 39 nM.

For the compound `O=Cc1nccnc1NCC(=O)N1CCC(Oc2ccccc2Cl)CC1`, the IC50 worked out at 210 nM.

`N#Cc1nccnc1NCC(=O)N1CCC(Oc2ccccc2Cl)CC1`: the IC50 came out at 340 nM.

In turn, `O=C(CNc1nccnc1Cl)N1CCC(Oc2ccccc2Cl)CC1` displayed an IC50 of 30 nM.

Regarding `CNC(=O)c1nccnc1NCC(=O)N1CCC(Oc2ccccc2)CC1`, the IC50 amounted to 6300 nM.

The compound `CNC(=O)c1nccnc1NCC(=O)N1CCC(Oc2ccccc2Br)CC1` displayed an IC50 of 58 nM.

Regarding `CNC(=O)c1nccnc1NCC(=O)N1CCC(Oc2cc(Cl)ccc2Cl)CC1`, the IC50 is 38 nM.

In turn, `O=C(NCc1ccccc1)c1ncccc1NCC(=O)N1CCC(Oc2ccccc2Cl)CC1` showed an IC50 of 560 nM.

The compound `O=C(NCc1ccccc1)c1nccnc1NCC(=O)N1CCC(Oc2ccccc2Cl)CC1` gave an IC50 of 140 nM.

The compound `O=C(NCc1ccccc1)c1cccc(NCC(=O)N2CCC(Oc3ccccc3C(F)(F)F)CC2)n1` registered an IC50 of 7300 nM.

`CNC(=O)c1cccnc1NCC(=O)N1CCC(Oc2ccccc2C(F)(F)F)CC1` displayed an IC50 of over 1000 nM.

As to `CNC(=O)c1ncccc1NCC(=O)N1CCC(Oc2ccccc2C(F)(F)F)CC1`, the IC50 was found to be 97 nM.

As to `CCNC(=O)c1ncccc1NCC(=O)N1CCC(Oc2ccccc2C(F)(F)F)CC1`, the IC50 was found to be 110 nM.

For `O=C(NCc1cccnc1)c1ncccc1NCC(=O)N1CCC(Oc2ccccc2C(F)(F)F)CC1`, the half-maximal inhibitory concentration (IC50) was 430 nM.

As to `O=C(NCc1ccncc1)c1ncccc1NCC(=O)N1CCC(Oc2ccccc2C(F)(F)F)CC1`, the IC50 stood at 350 nM.

In the case of `O=C(NCCc1ccccc1)c1ncccc1NCC(=O)N1CCC(Oc2ccccc2C(F)(F)F)CC1`, the IC50 worked out at 780 nM.

As for `CN(C)C(=O)c1ncccc1NCC(=O)N1CCC(Oc2ccccc2C(F)(F)F)CC1`, the IC50 is over 10000 nM.

`O=C(NC1CCCC1)c1ncccc1NCC(=O)N1CCC(Oc2ccccc2C(F)(F)F)CC1` returned an IC50 of over 10000 nM.

`CNC(=O)c1nccnc1NCC(=O)N1CCC(Oc2ccccc2Cl)CC1` gave an IC50 of 51 nM.

The compound `CCNC(=O)c1nccnc1NCC(=O)N1CCC(Oc2ccccc2Cl)CC1` yielded an IC50 of 39 nM.

Take `CNC(=O)c1nccnc1NCC(=O)N1CCC(Oc2cc(F)cc(F)c2Cl)CC1`: 35 nM corresponded to half-maximal inhibition (IC50).

The compound `CNC(=O)c1nccnc1NCC(=O)N1CCC(C(=O)c2ccccc2)CC1` showed an IC50 of over 1000 nM.

`O=C(NCCO)c1nccnc1NCC(=O)N1CCC(Oc2ccccc2Cl)CC1` came in with an IC50 of 100 nM.

Regarding `CNC(=O)c1nccnc1NCC(=O)N1CCC(Oc2cc(F)ccc2Cl)CC1`, the IC50 is 51 nM.

Take `O=C(NCc1cccnc1)c1nccnc1NCC(=O)N1CCC(Oc2ccccc2Cl)CC1`: the IC50 is 99 nM.

In the case of `NC(=O)c1ncccc1NCC(=O)N1CCC(Oc2ccccc2C(F)(F)F)CC1`, half-maximal inhibition (IC50) was put at 90 nM.

With `CCCNC(=O)c1ncccc1NCC(=O)N1CCC(Oc2ccccc2C(F)(F)F)CC1`, the midpoint of inhibition, the IC50, lay at 390 nM.

`O=C(NCc1ccccc1)c1ccccc1NCC(=O)N1CCC(Oc2ccccc2Cl)CC1` came in with an IC50 of 580 nM.

As for `O=C(NCCO)c1ncccc1NCC(=O)N1CCC(Oc2ccccc2C(F)(F)F)CC1`, inhibition was half-maximal at 120 nM (IC50).

For the compound `NC(=O)c1nccnc1NCC(=O)N1CCC(Oc2ccccc2Cl)CC1`, half-maximal inhibition (IC50) required 94 nM.

The IC50 is the point on the concentration scale where inhibition reaches its midpoint. Lower therefore signals greater potency in that assay.
